The text below walks through data of patent US12622893B2, “Alpha2 adrenergic agonist codrugs conjugated with muscarinic agonist drugs” (ADS THERAPEUTICS LLC, priority 2021, dated 2026).

Series [1] in a line: In vitro metabolic stability in rabbit cornea homogenates. To be noted: 1 μM test compound, 0.3 mg/mL corneal protein homogenate, pH=6.0, 37° C.; for Rate of formation Metabolite 1: metabolite 1 = pilocarpine; for Rate of formation Metabolite 2: metabolite 2 as named under each value (Dexmedetomidine metabolite, brimonidine metabolite or brimonidine). The class given is in vitro ADME, Dutch Belted rabbits. The protocol: Dutch Belted rabbits will be euthanized with an overdose of sodium pentobarbital. The corneas will be collected and homogenized in ice-cold potassium chloride solution (pH=7.4). The homogenate will be centrifuged at 755×g for 30 min at 4° C. and aliquots of the supernatant will be stored at or below −70° C. until metabolism experiments will be conducted. Prior to storing the homogenates, an aliquot will be removed for the determination of protein concentrations by calculating the […] using a spectrophotometer. All metabolic stability experiments will be performed in triplicate in 96-well plate format. The final incubation mixture will contain 1 μM test compound, 0.3 mg/mL corneal protein homogenate in a final volume of 0.5 mL 0.1 M potassium phosphate buffer (pH=6.0). The final percentage of solvent in the incubation will be less than 1.0% to prevent inhibition of enzymatic activity. Following a pre-incubation at 37° C., test article will be added to initiate the reaction. At designated time points (typically less than 60 minutes to capture the linear range of metabolite formation), 0.05 mL aliquots will be removed from the incubation mixtures using a clean pipet tip and immediately placed in organic solvent to stop any esterase activity. The hydrolysis to the metabolites will be confirmed to be due to esterase activity and not chemical stability. The samples will be analyzed by liquid chromatography with mass spectrometry (LC-MS/MS) detection to determine the metabolite concentrations resulting from the metabolism of the hybrid compounds. Internal standards were used to compensate for variability from sample processing, chromatographic elution, mass spectrometer response and ion suppression by matrix components.

In series [2] the test system is rabbit pupil. Kind of series: In vivo pharmacology study of measuring pupil size (Example 27). The arrangement: species or system Dutch belted rabbits. The conditions noted are these: FIG. 2; 0.5% and 2%. The method, then: (§1) Three (3) female Dutch belted rabbits were randomly assigned to each group by Provantis or Excel based on body weight. Each animal was dosed 40 μL of testing article (see Table 4 below) to both eyes. The pupil sizes of both eyes were measured at baseline (30 minutes before dosing), 0.5 h, 1 h, 2 h, 3 h, 4 h, 6 h, 8 h after dosing. The pupil size measurement data were analyzed for efficacy of pupil constriction. CBT compounds tested are co-drugs of pilocarpine-alpha adrenergic agonists as described above. The vehicle used to dissolve CBT compounds is the same as the vehicle used in the negative control in group 1. Positive control 1 is 1.25% Pilocarpine HCl in an aqueous buffer. Positive control 2 is 3.0% Carbachol and 0.2% Brimonidine in an aqueous buffer. This control can result in a large pupil constrictive effect.

The test system of series [3] is rabbit pupil. Put plainly: In vivo pharmacology study of measuring pupil size (Example 28). The arrangement: species or system Dutch belted rabbits. The conditions noted are these: FIG. 3; for efficacy of pupil constriction compared with positive control 1: positive control 1 is 1.25% Pilocarpine HCl; for potency of pupil constriction compared with other co-drugs: all co-drugs at 1%. The protocol:
as §1, with “Table 5” for “Table 4”, “8 h, 24” for “8”, “constriction. Co-drug” for “constriction. CBT”, “compounds” for “compounds tested”, “dissolve Co-drug” for “dissolve CBT”

Series [4] is described as follows: In vivo ocular pharmacokinetics following a single topical ophthalmic administration. The arrangement: species or system New Zealand White Rabbits. The conditions noted are these: 0.5% (w/v) solution; for Conc. of Co-drug in Cornea Tissue: both eyes. The method, then: Rabbits will be dosed once by ocular instillation to both eyes with each compound formulated in a 0.5% (w/v) solution. At 0.25, 0.5, 1, 2, 6 and 10 hours post dose, cornea, aqueous humor, conjunctiva and eyelid margin will be collected and stored at approximately −70° C. until bioanalysis. Ocular tissue samples will be analyzed by liquid chromatography with mass spectrometry detection to determine the parent and metabolite (pilocarpine and brimonidine) concentrations resulting from the metabolism of ester linked co-drugs. Internal standards will be used to compensate for variability from sample processing, chromatographic elution, mass spectrometer response and ion suppression by matrix components. […]

Setting [5] is: 0.25 hr after dosing the co-drug.
Where [6] appears, read: 0.5 hr after dosing the co-drug.

On to `CC[C@H](C(=O)OCOC(=O)N1CCN=C1Nc1ccc2[nH]cnc2c1Br)[C@H](CO)Cc1cncn1C` [compound 3, (((2S,3R)-2-ethyl-4-hydroxy-3-((1-methyl-1H-imidazol-5-yl)methyl)butanoyl)oxy)methyl 2-((4-bromo-1H-benzo[d]imidazol-5-yl)amino)-4,5-dihydro-1H-imidazole-1-carboxylate], for which, in series [1], the “Rate of formation Metabolite 1” value is recorded as 8.86 ± 0.13 nM/min/mg and the “Rate of formation Metabolite 2” value turned out to be 1.23 ± 0.03 nM/min/mg.

Turning to `CC[C@H](C(=O)OCc1cccc([C@H](C)c2c[nH]cn2)c1C)[C@H](COC(C)=O)Cc1cncn1C` [Compound-2, 3-((S)-1-(1H-imidazol-4-yl)ethyl)-2-methylbenzyl (2S,3R)-4-acetoxy-2-ethyl-3-((1-methyl-1H-imidazol-5-yl)methyl)butanoate], the “dose relation of pupil constriction” value in the series with rabbit pupil [2] is reported as “dose-related effects”. In addition, in series [1], the “Rate of formation Metabolite 1” value worked out at 4.34 ± 0.11 nM/min/mg and the “Rate of formation Metabolite 2” value is on record as 2.87 ± 0.78 nM/min/mg.

Take `CC[C@H](C(=O)OCOC(=O)N1CCN=C1Nc1ccc2[nH]cnc2c1Br)[C@H](COC(C)=O)Cc1cncn1C` [Compound-4, (((2S,3R)-4-acetoxy-2-ethyl-3-((1-methyl-1H-imidazol-5-yl)methyl)butanoyl)oxy)methyl 2-((4-bromo-1H-benzo[d]imidazol-5-yl)amino)-4,5-dihydro-1H-imidazole-1-carboxylate]: in series [1], the “Rate of formation Metabolite 1” value is on record as 5.87 ± 0.97 nM/min/mg and the “Rate of formation Metabolite 2” value worked out at 6.34 ± 0.07 nM/min/mg.

For the compound `CC[C@H](C(=O)N1CCN/C1=N/c1ccc2nccnc2c1Br)[C@H](COC(=O)C(C)(C)C)Cc1cncn1C` [Compound-20, (2R,3S)-3-((Z)-2-((5-bromoquinoxalin-6-yl)imino)imidazolidine-1-carbonyl)-2-((1-methyl-1H-imidazol-5-yl)methyl)pentyl pivalate], in the series on rabbit pupil [3], the “efficacy of pupil constriction compared with positive control 1” value is “efficacies similar to that of positive control 1”; the “potency of pupil constriction compared with other co-drugs” value was “better potency than Compound-15 and Compound-19”.

As for `CC[C@H](C(=O)OCOC(=O)N1CCN=C1Nc1ccc2nccnc2c1Br)[C@H](COC(C)=O)Cc1cncn1C` [compound 6, (((2S,3R)-4-acetoxy-2-ethyl-3-((1-methyl-1H-imidazol-5-yl)methyl)butanoyl)oxy)methyl 2-((5-bromoquinoxalin-6-yl)amino)-4,5-dihydro-1H-imidazole-1-carboxylate], the “Conc. of Brimonidine (Metabolite 2) in Cornea Tissue” value in series [4] (setting [5]) came to 24 ± 12 ng/mL; in series [4] (setting [6]), 78 ± 54 ng/mL; in series [4] (1 hr after dosing the co-drug), 98 ± 23 ng/mL; in series [4] (2 hr after dosing the co-drug) it was 139 ± 37 ng/mL; in series [4] (6 hr after dosing the co-drug) it was 339 ± 134 ng/mL; in series [4] (10 hr after dosing the co-drug), 539 ± 97 ng/mL. For the same compound, the “Conc. of Pilocarpine (Metabolite 1) in Cornea Tissue” value in series [4] (setting [5]) came to 39 ± 37 ng/mL; in series [4] (setting [6]), 139 ± 78 ng/mL; in series [4] (1 hr after dosing the co-drug) it was 379 ± 120 ng/mL; in series [4] (2 hr after dosing the co-drug), 539 ± 30 ng/mL; in series [4] (6 hr after dosing the co-drug), 754 ± 127 ng/mL; in series [4] (10 hr after dosing the co-drug) it was 867 ± 37 ng/mL. In addition, the “Conc. of Co-drug in Cornea Tissue” value is 7238 ± 345 ng/mL in series [4] (0.25 hr post dose); 987 ± 245 ng/mL in series [4] (0.5 hr post dose); 234 ± 33 ng/mL in series [4] (1 hr post dose); 95 ± 19 ng/mL in series [4] (2 hr post dose); 39 ± 37 ng/mL in series [4] (6 hr post dose); 12 ± 3 ng/mL in series [4] (10 hr post dose). Moreover, the “Rate of formation Metabolite 1” value in series [1] was 7.43 ± 0.27 nM/min/mg. Moreover, in series [1], the “Rate of formation Metabolite 2” value is reported as 1.98 ± 0.09 nM/min/mg.

In the case of `CC[C@H](C(=O)OCc1cccc([C@H](C)c2c[nH]cn2)c1C)[C@H](CO)Cc1cncn1C` [Compound-1, 3-((S)-1-(1H-imidazol-4-yl)ethyl)-2-methylbenzyl (2S,3R)-2-ethyl-4-hydroxy-3-((1-methyl-1H-imidazol-5-yl)methyl)butanoate], in series [1], the “Rate of formation Metabolite 1” value is 5.56 ± 0.43 nM/min/mg and the “Rate of formation Metabolite 2” value came to 3.52 ± 0.23 nM/min/mg.

`CC[C@H](C(=O)OCOC(=O)N1CCN=C1Nc1ccc2nccnc2c1Br)[C@H](CO)Cc1cncn1C` [compound 5, (((2S,3R)-2-ethyl-4-hydroxy-3-((1-methyl-1H-imidazol-5-yl)methyl)butanoyl)oxy)methyl 2-((5-bromoquinoxalin-6-yl)amino)-4,5-dihydro-1H-imidazole-1-carboxylate]: in series [1], the “Rate of formation Metabolite 1” value is reported as 2.13 ± 0.24 nM/min/mg and the “Rate of formation Metabolite 2” value came out at 4.98 ± 0.34 nM/min/mg.

As for `CC[C@H](C(=O)N1CCN/C1=N/c1ccc2nccnc2c1Br)[C@H](COC(C)=O)Cc1cncn1C` [Compound-16, (2R,3S)-3-((Z)-2-((5-bromoquinoxalin-6-yl)imino)imidazolidine-1-carbonyl)-2-((1-methyl-1H-imidazol-5-yl)methyl)pentyl acetate], in the series with rabbit pupil [3], the “efficacy of pupil constriction compared with positive control 1” value was “efficacies similar to that of positive control 1”; the “potency of pupil constriction compared with other co-drugs” value is “better potency than Compound-15 and Compound-19”.
